# Measurements: paper PMC6085350, “Small molecule inhibitors of RAS-effector protein interactions derived using an intracellular antibody fragment” (Nature Communications, 2018)
# Entries after “also recorded” stand apart in the source; their conditions may differ. Like-named read-outs stand apart in the source and are kept apart here.
# What was measured:
# DLD-1 cells (KRAS^G13D) = test: Cell viability (CellTiterGlo), DLD-1; type: cell-based, human; conditions: for effect on cell viability: DLD-1, 0–20 μM, up to 72 h; for IC50: Homo sapiens
# Experimental: Fig. 5 Abd-7 results on RAS-dependent signalling pathways and cell viability. a, b DLD-1 (a) or H358 (b) cells were serum-starved for 24 h, incubated in mono-layer with Abd-7 in a range from 2, 5, 10 and 20 μM for 3 h and stimulated with EGF 10 min. Proteins were extracted and separated by SDS-PAGE and transferred to membranes for Western analysis with anti-pAKT, anti-pERK, anti-pan AKT and anti-pan ERK. Anti-cyclophilin B antibody was the loading control. Signal was developed using standard ECL. c–e Effects of compounds Abd-2, Abd-4, Abd-5, Abd-6, and Abd-7 on the viability of human cancer cells lines was assessed for a 2-D culture of DLD-1 (mutant KRAS^G13D) cells and HT1080 cells (mutant NRAS^Q61K). The cells were treated with a dose range from 0 μM to 20 μ and incubated for 72 h when cell viability was assessed using CellTitreGlo. […] Each experiment was repeated at least three times (a, b) and four times (c, d). Where error bars are presented, they correspond to mean values ± SD of biological repeats […]
# Cancer cell lines were in seeded in ViewPlates-96 microplates (PerkinElmer). DLD-1 cells were plated at 10,000 cells per well and HT1080 cells at 7500 cells per well and cultured in DMEM, high glucose, GlutaMAX media containing 10% FBS at 37 °C in 5% CO2 atmosphere. Cells were cultured overnight and the compounds (dissolved in DMSO and diluted to 0.2% DMSO) were added to the cells at concentrations ranging from 0 to 20 μM. The cells were incubated under standard culture conditions for either 24, 48 or 72 h. Cell viability was as quantitated using the CellTiterGlo Luminescent Cell Viability Assay (Promega) according to the manufacturer’s instructions to measure ATP generated by metabolically active cells. Luminescent signals were measured using an Envision 2103 Multilabel Microplate Reader (PerkinElmer). The luminescence signals obtained from the compound-treated cells were normalized against the signal for DMSO-only treated cells. The IC50 values, calculated from the 48 and 72 h CellTiterGlo data, were generated by non-linear regression using the software GraphPad Prism 7.00 for windows (GraphPad Inc).
# Supplementary Figure 7: The effect of Abd compounds on the viability of cancer cells The effect of the chemical series on the viability of human cancer cells lines DLD -1 (a colorectal cancer cell line with mutant KRAS
# ) and HT1080 (a fibrosarcoma cell line with
# ). The cells were treated with a dose range from […] of either
# Abd-2, Abd-4, Abd-5, Abd-6 and Abd-7 and incubated for 24 or 48 hours. Cell viability was assessed using CellTitreGlo . In each case, the data are normalized to cells treated with DMSO only. Panels a and b are DLD-1 viability and panels c and d are HT1080 viability.
# The IC50 for Abd-7 at 48 & 72 […]
# hours are shown in panel f. Each experiment was repeated at least four times ( a to d).
# Where error bars are presented, they correspond to mean values ± SD of biological repeats.
# (§1) (1 picture or pasted object on this page, not shown here)
# KRAS^G12V-GppNHp = biological target: T1, KRAS^G12V-GppNHp (Homo sapiens, UniProt P01116, G12V); test: waterLOGSY NMR binding
# T1 construct: made in house; host or cells: E. coli (pGEX-2T; strain named only for the HRAS plasmids)
# T1 sequence (P01116 1-188 isoform P01116-2 G12V): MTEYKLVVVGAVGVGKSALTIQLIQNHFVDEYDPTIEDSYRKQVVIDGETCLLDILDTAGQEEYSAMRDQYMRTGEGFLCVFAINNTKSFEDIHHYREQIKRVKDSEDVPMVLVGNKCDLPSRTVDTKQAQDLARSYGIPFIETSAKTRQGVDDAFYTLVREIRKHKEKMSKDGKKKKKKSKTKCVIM
# Experimental: The waterLOGSY NMR method[35] was used to measure RAS ligand interaction. WaterLOGSY experiments were conducted at a ^1H frequency of 600 MHz using a Bruker Avance spectrometer equipped with a BBI probe. All experiments were conducted at 298 K, 3 mm diameter NMR tubes with a sample final volume of 200 µl was used in all experiments. Solutions were buffered using an H2O 10 mM PBS, 5 mM MgCl2 buffer corrected to pH 7.4. The sample preparation is exemplified as follows, the compound (10 µl of a […] solution in DMSO-d6) was added to an eppendorf before sequential addition of the H2O PBS buffer (163.6 µl), D2O (20 µl), and protein (6.4 µl, 311.8 µM). The resulting solution was spun to ensure full mixing and transferred to a 3 mm NMR tube before running the experiment. For a competition experiment using Y6-scFv or VH, the preparation was carried out in a similar manner; the compound (10 µl of a 10 mM solution in DMSO-d6) was added to an eppendorf before sequential addition of the H2O PBS buffer (146.4 µl), D2O (20 µl), protein (6.4 µl, 311.8 µM) and Y6-ScFv (17.2 µl, 116.6 µM) with a ratio of 5.5:1:1. The resulting solution was spun and transferred to a 3 mm NMR tube before the run. Negative controls (compound alone, without the protein) were prepared in a similar manner, in order to obtain an end volume of 200 μl.
# Supplementary Figure 3: Abd-2 WaterLOGSY NMR with and without anti RAS-scFV Abd-2 was analyzed by waterLOGSY. […]
# binding of Abd-2 to KRAS -GppNHp (upper trace, in green) but poor binding to KRAS-GDP (middle trace, in red). The proton NMR spectrum of Abd-2 in the absence of protein is […]
# shown in the lower trace. Panel b, WaterLOGSY of Abd-2 with KRAS -GppNHp in the presence or absence of scFv competitor respectively top (no binding of Abd-2 to the […]
# KRAS -GppNHp + scFv complex) and middle spectra (binding to KRAS -GppNHp without scFv) in purple and red respectively. The lower spectra is the proton NMR of Abd -2 in the absence of protein. Results from panel b confirm the interference of binding by the […]
# as §1
# Supplementary Figure 6: Abd-7 Binding in WaterLOGSy and Kd calculations in CPMG WaterLOGSY and CPMG NMR orthogonal analysis of Abd-5 (panel a, b), Abd-6 (c, d), and Abd-7 (e, f) with GST-KRASG12V-GppNHp. For each waterLOGSY profile, the proton NMR spectrum of the compound is shown together the spectra of the compound after incubation with the KRAS (the NOE transfers occurs when the compounds displace those waters upon binding to the protein). The Kd of interaction of the compounds come from fitting a binding curve (right of panels b, d, f) of a CPMG titration (shown on the left of panels b, d, f). The calculated Kd is shown for each compound.
# (MW), Kd, Solubility and ligand efficiency (LE). […]
SMILES,effect on cell viability (DLD-1 cells (KRAS^G13D)),binding to KRAS^G12V-GppNHp (waterLOGSY) (KRAS^G12V-GppNHp),"IC50 (DLD-1 cells (KRAS^G13D); DLD-1, 72 h, read-out: IC50 cell viability) [µM]","IC50 (DLD-1 cells (KRAS^G13D); DLD-1, 48 h, Supplementary Fig. 7f, read-out: DLD-1 IC50 48h) [µM]","IC50 (DLD-1 cells (KRAS^G13D); DLD-1, 48 h as printed in discussion, read-out: IC50 cell viability) [µM]"
O=C(NCC1COc2ccccc2O1)c1ccco1 (stereo not shown) [Abd-2],no effect on cell viability; also recorded: had not effect,preferential binding,,,
COc1nc(-c2cccc3c2OCCO3)ccc1Nc1ccc(CN(C)C)cc1 [Abd-7],,confirmed,8,9.8,~8
COc1nc(-c2cccc3c2O[C@H](CNC(=O)C2CCOCC2)CO3)ccc1Nc1cccc(CN(C)C)c1 [Abd-6],have an effect on the viability,confirmed,,,
COc1cccc(-c2cccc3c2OC(CNC(=O)c2ccc(OCCN(C)C)cc2)CO3)n1 (stereo not shown) [Abd-5],have an effect on the viability,confirmed,,,
